# Reference: patent publication US11884686B2, “Chelate compounds” (priority 2016, dated 2024)
# “Also recorded” adds a separate entry of the source.
# What was measured:
# 1H NMRD profiles = assay type: physicochemical; details: 0.01 to 80 MHz, pH 6.9
# Description: Both the longitudinal and transverse relaxation times were measured in human serum (BioreclamationIVT, Cat #HMSRM-M) to reflect the efficiency of the Mn(II) based chelates in an environment close to physiological. The relaxivity assessment was carried out at a concentration ranging from 5 to 0 mM Mn(II), at 40° C. using a Minispec Mq benchtop NMR relaxometer (Bruker Instruments, Rheinstetten, Germany) operating at 60 MHz (1.4 T) with an inversion recovery pulse sequence. The longitudinal and transverse relaxivities of the complexes (e.g., r1 and r2 respectively) were calculated by plotting the reciprocal of their relaxation time versus the manganese concentration as determined via ICP-MS (Spectro Arcos FHS12, S/N 10003910 or S/N 12006120) for each Mn(II) based chelates. The dependence of T1 by B0 (i.e., magnetic field) applied was assessed via the acquisition of ^1H Nuclear Magnetic Relaxation Dispersion (NMRD) profiles. […] The temperature was monitored by a VTC91 temperature control unit and maintained by a gas flow. The temperature was determined by previous calibration with a Pt resistance temperature probe. High field relaxivities were measured on a Bruker AVANCE NMR spectrometer at 400 MHz. […]
# [1] = Dissociation kinetics via Cu2+ transmetallation (UV-Vis absorbance); assay type: physicochemical; details: pH = 5.0, CCu2+ 0.004 M, 25° C., 0.2 mM chelate
Structure (SMILES),1H NMRD profile (1H NMRD profiles),kobs1 [1] [min⁻¹]
CN1CCN2Cc3cccc(n3)CN(CC1)C(CCC(=O)N(C)C[C@H](O)[C@@H](O)[C@H](O)[C@H](O)CO)C(=O)[O][Mn][O]C(=O)C2CCC(=O)N(C)C[C@H](O)[C@@H](O)[C@H](O)[C@H](O)CO (stereo partly drawn) [Mn Chelate 4],only one dispersion in the profile around 1 MHz; also recorded: small r1 hump in the frequency region between 60 and 80 MHz,
"CN1CCN2CC(=O)[O][Mn][O]C(=O)CN(CC1)Cc1cccc(n1)C2 [Prior Art Mn Chelate, reference compound]",only one dispersion in the profile around 1 MHz,0.032
